Values quoted from earlier work, collected in patent US5554621A, “Dihydropyridine NPY antagonists: nitrogen heterocyclic derivatives” (Bristol-Myers Squibb Company, priority 1995, dated 1996).

Tests used:
[1] = test system: I-125 labeled NPY and PYY in human neuroblastoma cells
[2] = test system: NPY-related increases in diastolic blood pressure; details: anesthetized guinea pig
[3] = test system: NPY-induced contractions in guinea pig basilar artery
[4] = test system: NPY-induced increase in intracellular Ca++ in SK-N-Mc cells
[5] = test system: NPY-induced pressor response; details: pithed rat
[6] = biological target: T1, Y2 receptor (Rattus norvegicus, UniProt Q9ERC0); details: functional selectivity for Y2 receptor
T1 sequence (Q9ERC0 1-381): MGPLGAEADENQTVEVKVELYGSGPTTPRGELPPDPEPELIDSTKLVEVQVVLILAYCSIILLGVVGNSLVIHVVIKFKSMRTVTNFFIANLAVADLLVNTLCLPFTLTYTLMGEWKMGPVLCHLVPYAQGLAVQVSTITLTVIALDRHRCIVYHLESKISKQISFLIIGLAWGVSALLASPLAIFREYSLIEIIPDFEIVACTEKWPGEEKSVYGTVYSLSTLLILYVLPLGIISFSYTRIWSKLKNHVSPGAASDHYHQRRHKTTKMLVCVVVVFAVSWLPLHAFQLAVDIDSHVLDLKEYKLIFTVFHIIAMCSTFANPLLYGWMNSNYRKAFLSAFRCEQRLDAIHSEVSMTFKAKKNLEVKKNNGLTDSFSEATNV

[7] = test system: 3H-NPY in rat brain; details: read-out: IC50 (displacement of 3H-NPY)
[8] = biological target: T2, NPY1 (Rattus norvegicus, UniProt P21555)
T2 construct: vasoconstrictive activity of the NPY1 agonist
T2 sequence (P21555 1-382): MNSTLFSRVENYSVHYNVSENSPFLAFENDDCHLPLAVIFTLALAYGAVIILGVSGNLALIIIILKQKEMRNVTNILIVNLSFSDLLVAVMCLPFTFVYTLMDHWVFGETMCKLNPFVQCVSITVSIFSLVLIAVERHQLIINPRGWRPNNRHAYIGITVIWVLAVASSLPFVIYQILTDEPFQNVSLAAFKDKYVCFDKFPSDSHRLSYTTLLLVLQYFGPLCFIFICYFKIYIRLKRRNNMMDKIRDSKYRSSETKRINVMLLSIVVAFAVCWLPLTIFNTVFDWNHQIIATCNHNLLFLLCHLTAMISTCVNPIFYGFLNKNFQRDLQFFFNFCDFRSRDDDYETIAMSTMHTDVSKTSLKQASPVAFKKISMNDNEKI

[9] = test system: rat femoral artery

CN(C)CC1CCC(CNC(=N)c2ccc(CC(NC(=O)C(Cc3ccccc3)NS(=O)(=O)c3ccc4ccccc4c3)C(=O)N3CCCC3)cc2)CC1 (stereo not drawn) [SR 120819A]
Displacement of I-125 labeled NPY and PYY [1]: displacing | Antagonism of NPY-related increases in diastolic blood pressure [2]: antagonized

O=P(O)(O)O[C@@H]1[C@H](OP(=O)(O)O)[C@H](O)[C@@H](O)[C@H](O)[C@H]1OP(=O)(O)O [D-Myo-inositol-1,2,6-triphosphate]
Antagonism of NPY-induced contractions [3]: potent but non-competitive antagonist

N=C(N)NCCC[C@@H](NC(=O)C(c1ccccc1)c1ccccc1)C(=O)NCc1ccc(O)cc1 [BIBP 3226]
Antagonism of NPY-induced increase in intracellular Ca++ [4]: antagonized | Antagonism of NPY-induced pressor response [5]: antagonizing

N=C(N)N(CCCCCCNCc1ccc2ccccc2c1)CCCCCCN(CCCCCCNCc1ccc2ccccc2c1)C(=N)N [Example 6b]
Effect against NPY2 agonist NPY13-36 [6]: antagonized the effect | IC50 [7]: 18.4 µM | Effect on vasoconstrictive activity of NPY1 agonist [Leu31, Pro34]NPY [8]: no effect | Functional antagonism [9]: functional antagonism
